The results in this text go back to patent publication US20250283052A1, “THERAPEUTIC NK CELL POPULATIONS” (Gamida Cell Ltd., priority 2021, published 2025).

In one test the test system is CD200R. The test can be described thus: CD200R immunophenotyping of expanded NK cells (FACS). Conditions: 2 weeks culture without NAM or with 2.5, 5 or 7 mM NAM (FIG. 3). In kind it is cell-based. The procedure:
Cells were cultured for 2 weeks without NAM and with 2.5 mM, 5 mM NAM or 7 mM NAM. Samples for staining against CD200R were analyzed by FACS.
The immune checkpoint receptors, CD200R and Programmed Death receptor-1 (PD-1), are exploited by tumor cells which overexpress their ligands to suppress lymphocytes anti-tumor activity. The effect of expansion with nicotinamide (NAM) on expression of immune checkpoint receptors in NK cells was assessed.

The test system of a further test is CD62L. The test can be described thus: CD62L staining 2 hours post-thaw (FACS). In kind it is cell-based. Conditions: culturing in 7 mM NAM; 2 hours post-thaw (FIG. 2). The procedure: The cells were thawed, and 2 hours post-thaw were sampled for staining against CD62L and analyzed by FACS. Assays for adhesion and migration molecules such as CD62L, CXCR-4, CD49e and the like, important for homing/engraftment and retention of cells in transplantation, are well known in the art. CD62L expression in a cell can be assayed, for example, by flow cytometry, immunodetection, quantitative cDNA amplification, hybridization and the like. In one embodiment, CD62L expression is detected in different populations of NK cells by exposure of the cells to a fluorescent-tagged specific anti-human CD62L monoclonal antibody [e.g., CD62L PE, Cat. No. 304806 from BioLegend (San Diego, CA, USA)], and sorting of the cells by fluorescent activated cell sorting (FACS). After 2 weeks in culture according to the methods of the invention, a modified procedure using inactivated autologous CD3+ cells as feeder, supplemented with OKT3 and NAM, led to an improved fold expansion, which increased the total number of viable cells obtained at harvest. The functionality of the cells in killing and ADCC was assessed by combination of NK cells with target cells BL2 (Burkitt lymphoma cell line)—at different ratios. […]

SMILES strings stand for the structures.

Turning to `NC(=O)c1cccnc1` [NAM, nicotinamide], in the test with CD200R, the “expression of CD200R on expanded NK cells” value is “down regulated”. Also, in the test with CD62L, the “expression of CD62L” value is “increased expression of CD62L”.
